Common to all, as to assay type: cell-based, human
Series [1] deals with EA.hy926 cells. As to the kind of experiment: Protective effect against H2O2-induced oxidative damage, MTT assay. As to conditions: for EC50: protection against H2O2-induced damage (400 µmol·L^−1, 4 h), n = 3, mean ± SD. The method, then:
Hydrogen peroxide (H2O2), a small molecule and functions as oxidative stress and a second messenger which contributes to cell damage or death, could directly induce inflammation in several cell lines. H2O2-induced cell damage is a commonly used model for antioxidant activity evaluation. […] Thus, the concentration of 400 µmol·L^−1 at 4 h was chosen as the model.
(§1) Compound SC2 stock solutions were prepared in DMSO. The stock solutions were diluted with FBS free DMEM to different target concentrations (DMSO concentrations ≤ 0.5% v:v). Cells (100 μL, 2 × 10^5 cells∙mL^−1) were seeded on 96-well plates and cultured for 24 h. The medium was then replaced with fresh media containing H2O2 with different concentrations (0, 100, 200, 300, 400, 500, and 600 μmol·L^−1 in FBS free DMEM) and compound SC2 (50, 40, 30, 20, 10 µmol·L^−1), which were transferred to the incubator and cultured for additional time (2, 4, and 6 h). The medium was then replaced with 100 μL of FBS free DMEM and MTT (10 μL, 5 mg·mL^−1 in PBS) and after 4 h the medium was replaced with DMSO (100 μL). A microplate reader (SpectraMaxPlus384, Molecular Devices, United States) was used to record the absorbance at 490 nm for each well of the plates. Cell viability was measured via MTT assay. Survival rate (%) = (Asample group/Acontrol group) × 100%.
Cells (100 μL, 2 × 10^5 cells·mL^−1) were seeded in 96-well plates for 24 h. Cells were treated with different groups and cell viability was measured via MTT assay. The protection rates to oxidative damage were determined and EC50 values were calculated. The protection rates to cells were calculated using the following formula: Protection rate (%) = (Apretreatment group − Amodel group)/(Acontrol group − Amodel group) × 100%.

Series [2] relates to EA.hy926 cells. As to the kind of experiment: Cytotoxicity of compound SC2, MTT assay. The method, then:
The cytotoxicity of compound SC2 on EA.hy926 cells was detected by 3-(4,5-dimethyl-2-thiazolyl)-2,5-diphenyl-2-H-tetrazolium bromide (MTT) assay.
as §1
(Tetrazolium assays rely on reduction of a dye to a coloured formazan, in cell work by metabolically active cells.)

In series [3] the test system is EA.hy926 cells. In words: LDH, MDA, ROS and SOD in H2O2-treated cells. The conditions noted are these: pretreated 24 h, then 400 μmol·L^−1 H2O2 for 4 h; p < 0.01. The method, then:
In the course of oxidative stress, the balance between oxidation and antioxidant activity of cells was disturbed, and the levels of ROS, malondialdehyde (MDA) and lactate dehydrogenase (LDH) increased, while the activity of superoxide dismutase (SOD) enzyme in cells decreased.
Cells were dispensed into 24-well plate wells for 24 h and pretreated with target compound SC2 (5, 0.1, 0.05 µmol·L^−1) or the positive controls (10 µmol·L^−1) for 24 h, followed by exposure to 400 μmol·L^−1 H2O2 for 4 h. The cells were collected and the activities of LDH, MDA, SOD and ROS were determined according to the kits’ instructions.

A word on the EC50: it is the concentration needed to bring the measured effect to its halfway point. In series [1] (Homo sapiens, EA.hy 926, 4 h), `CCCCc1ccc(C(=O)c2c(Br)cc(O)c(O)c2O)cc1` [DB2] had a concentration giving a half-maximal response (EC50) of 1360 ± 463 nM.
As for `CC(C)(C)c1ccc(C(=O)c2c(Cl)cc(O)c(O)c2O)cc1` [SC2], the “protection from H2O2 induced cell damage” value in series [1] (5 µmol·L^−1 compound, four pre-chosen H2O2 treatments) was “protects the cells from H2O2 induced cell damage”. Moreover, in series [1] (Homo sapiens, EA.hy 926, 4 h), the half-maximal effective concentration (EC50) was 6.25 ± 0.415 nM. The EC50 in series [1] is 6.25 ± 0.415 nM. The “cell survival rate compared with control group” value in series [2] (concentrations less than 30 µmol·L^−1) is “not significantly different”. For the same compound, the “effect on cells at concentration used in cell-based experiments” value in series [2] (less than 10 µmol·L^−1) is reported as “harmless to cells”. In addition, in series [3], the “LDH level compared with model group” value is on record as “significantly reduced”, the “MDA level compared with model group” value is recorded as “significantly reduced”, the “ROS level compared with model group” value is “significantly reduced” and the “SOD activity compared with model group” value is reported as “significantly increased”.
Compound `CC(C)Cc1ccc(C(=O)c2c(Br)cc(O)c(O)c2O)cc1` [YB2] came in with a half-maximal effective concentration (EC50) in series [1] (Homo sapiens, EA.hy 926, 4 h) of 418 ± 24.6 nM. Moreover, the “protection rate compared with positive controls (fenofibrate and quereetin)” value in series [1] (statistical comparison) is on record as “no significant difference”.

For the origin of these results see paper PMC8587043, “An Investigation into the Interaction between Double Hydroxide-Based Antioxidant Benzophenone Derivatives and Cyclooxygenase 2” (Molecules, 2021).
